From patent US10253002B2, “Compounds and methods of treating infections” (Neoculi Pty Ltd., priority 2013, dated 2019)
≈ marks a conversion by molar mass, not a printed value. Where “and” joins values, the source holds several entries; their conditions need not be identical. Equal values may be shown once.

Columns and labels:
Assay in all cases: Broth microdilution MIC, Example 7 (NCL812 and analogues)
[1] = system: Escherichia coli; format: cell-based; settings: E. coli; 24 hours; duplicate lines per compound
[2] = system: VRE; format: cell-based, Enterococcus spp.; settings: 24 hours, duplicate lines per compound
In short: (§1)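 Values are MICs in μg/ml from broth microdilution per CLSI, with growth scored against a drug-free well.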

[3] = system: MRSA; format: cell-based, Staphylococcus aureus; settings: 24 hours, duplicate lines per compound
In short: as §1

[4] = system: Pseudomonas aeruginosa; format: cell-based; settings: P. aeruginosa; 24 hours; duplicate lines per compound

Structure (SMILES)	MIC (μg/ml) at 24 hours, E. coli [1] [µg/mL]	MIC (μg/ml) at 24 hours, VRE 1 [2] [µg/mL]	MIC (μg/ml) at 24 hours, VRE 2 [2]	MIC (μg/ml) at 24 hours, MRSA 1 [3]	MIC (μg/ml) at 24 hours, MRSA 2 [3] [µg/mL]	MIC (μg/ml) at 24 hours, P. aeruginosa [4] [µg/mL]
COc1ccc(C=CC=NNC(=N)NN=CC=Cc2ccc(OC)cc2)cc1.Cl [NCL 150]	>128	>128	>128 µg/mL	128 µg/mL	128	>128
Cl.N=C(NN=Cc1ccc(O)cc1)NN=Cc1ccc(O)cc1 [NCL 151]	>128	128	64 µg/mL	64 µg/mL	64	>128
Cc1cccc(C=NNC(=N)NN=Cc2cccc(C)c2O)c1O.Cl [NCL 152]	>128	>128	>128 µg/mL	>128 µg/mL	>128	>128
CCC(=NNC(=N)NN=C(CC)c1ccc(Cl)cc1)c1ccc(Cl)cc1.Cl [NCL 153]	>128	8	8 µg/mL	32 µg/mL	16	>128
CCCCC(=NNC(=N)NN=C(CCCC)c1ccc(Cl)cc1)c1ccc(Cl)cc1.Cl [NCL 154]	>128	>128	>128 µg/mL	>128 µg/mL	>128	>128
C/C(=N\NC(=N)N/N=C(\C)c1ccc(Br)cc1)c1ccc(Br)cc1.Cl [NCL 155]	>128	16	8 µg/mL	8 µg/mL	8	>128
CCCC(=NNC(=N)NN=C(CCC)c1ccc(Cl)cc1)c1ccc(Cl)cc1.Cl [NCL 156]	>128	>128	>128 µg/mL	>128 µg/mL	>128	>128
Cl.N=C(NN=Cc1ccc(Cl)cc1N)NN=Cc1ccc(Cl)cc1N [NCL 157]	>128	2	2 µg/mL and 4 µg/mL	2 µg/mL	2	>128
CCC(=NNC(=N)NN=C(CC)c1ccc(Cl)cc1O)c1ccc(Cl)cc1O.Cl [NCL 158]	>128	4	4 µg/mL	4 µg/mL	4	>128
Cl.N=C(NN=C(c1ccc(Cl)cc1O)C1CCCC1)NN=C(c1ccc(Cl)cc1O)C1CCCC1 [NCL 159]	>128	16	128 µg/mL	64 µg/mL	128	>128
Cl.N=C(NN=Cc1ccc(OC(F)(F)F)cc1)NN=Cc1ccc(OC(F)(F)F)cc1 [NCL 160]	>128	16	64 µg/mL	32 µg/mL and 64 µg/mL	128	>128
CC(=NNC(=N)NN=C(C)c1ccc(N2CCNCC2)cc1)c1ccc(N2CCNCC2)cc1.Cl [NCL 161]	>128	128	128 µg/mL	64 µg/mL and 128 µg/mL	128	>128
CCO/C(N)=N/N=C(\C)c1ccc(Cl)cc1 [NCL 162]	>128	>128	>128 µg/mL	>128 µg/mL	128 (≈ 534 µM)	>128
Cl.N=C(NN=C1C(=O)Nc2ccccc21)NN=C1C(=O)Nc2ccccc21 [NCL 163]	>128	>128	>128 µg/mL	>128 µg/mL	>128	>128
CC(=NNC(=N)NN=C(C)c1ccc(Cl)cc1N)c1ccc(Cl)cc1N.Cl [NCL 164]	>128	>128	>128 µg/mL	>128 µg/mL	>128	>128
Cl.Cl.Cl.N=C(NN=C(CN)c1ccccc1)NN=C(CN)c1ccccc1 [NCL 165]	>128	>128	>128 µg/mL	>128 µg/mL	>128	>128
Cl.N=C(NN=Cc1ccc(SC(F)(F)F)cc1)NN=Cc1ccc(SC(F)(F)F)cc1 [NCL 166]	>128	8	128 µg/mL	32 µg/mL	64	>128
